# Molecular target: human SPR (Homo sapiens (Human), UniProt P35270)
# Assay: Evaluation Example 2: Measurement of human SPR inhibitory activity (seven concentrations, sepiapterin absorbance at 420 nm)
# Type: biochemical
# Conditions: Evaluation Example 2, seven concentrations 0.14 nM to 100 nM, 240 minutes at room temperature, read-out: IC50
# Method in brief: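 His-tagged full-length human SPR (1-261) was expressed in E. coli and the tag removed. Enzyme at 150 ng/mL in 100 mM Tris-HCl pH 7.5/0.01% BSA was mixed with compound (0.14–100 nM, seven points), 120 μM sepiapterin and 160 μM NADPH, both as added-solution concentrations. After 240 min at room temperature, remaining sepiapterin was read at 420 nm to give percent inhibition.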
# human SPR, sequence (P35270 whole entry): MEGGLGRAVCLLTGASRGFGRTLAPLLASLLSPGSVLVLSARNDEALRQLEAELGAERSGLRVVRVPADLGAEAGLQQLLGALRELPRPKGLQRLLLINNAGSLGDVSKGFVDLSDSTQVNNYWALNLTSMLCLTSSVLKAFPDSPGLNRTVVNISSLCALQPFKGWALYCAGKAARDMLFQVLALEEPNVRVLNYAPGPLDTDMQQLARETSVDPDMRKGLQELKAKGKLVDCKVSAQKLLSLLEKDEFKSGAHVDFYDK
row,Compound,IC50 [nM]
1,"CC(C)Cn1c(=O)c(C(=O)NC2CC2)c(O)n2ncc(/C=C/C(=O)N3CCC[C@@H]3C(C)(C)O)c12 [compound 589, (R,E)-N-Cyclopropyl-7-hydroxy-3-(3-(2-(2-hydroxypropan-2-yl)pyrrolidin-1-yl)-3-oxoprop-1-en-1-yl)-4-isobutyl-5-oxo-4,5-dihydropyrazolo[1,5-a]pyrimidine-6-carboxamide]",1.34
2,"CC(C)Cn1c(=O)c(C(=O)NC2CC2)c(O)n2ncc(/C=C/C(=O)N3[C@H](C)CC[C@H]3C)c12 [compound 590, N-Cyclopropyl-3-((E)-3-((2R,5R)-2,5-dimethylpyrrolidin-1-yl)-3-oxoprop-1-en-1-yl)-7-hydroxy-4-isobutyl-5-oxo-4,5-dihydropyrazolo[1,5-a]pyrimidine-6-carboxamide]",1.09
3,"CC(C)Cn1c(=O)c(C(=O)NC2CC2)c(O)n2ncc(/C=C/C(=O)N3[C@@H](C)CC[C@@H]3C)c12 [compound 591, N-Cyclopropyl-3-((E)-3-((2S,5S)-2,5-dimethylpyrrolidin-1-yl)-3-oxoprop-1-en-1-yl)-7-hydroxy-4-isobutyl-5-oxo-4,5-dihydropyrazolo[1,5-a]pyrimidine-6-carboxamide]",1.29
4,"CC(C)Cn1c(=O)c(C(=O)NC2CC2)c(O)n2ncc(/C=C/C(=O)N3[C@H](C)CC[C@@H]3C)c12 [compound 592, N-Cyclopropyl-3-((E)-3-(cis-2,5-dimethylpyrrolidin-1-yl)-3-oxoprop-1-en-1-yl)-7-hydroxy-4-isobutyl-5-oxo-4,5-dihydropyrazolo[1,5-a]pyrimidine-6-carboxamide]",1.46
5,"CC(C)Cn1c(=O)c(C(=O)NC2CC2)c(O)n2ncc(/C=C/C(=O)N3CCc4cccnc43)c12 [compound 594, (E)-N-Cyclopropyl-3-(3-(2,3-dihydro-1H-pyrrolo[2,3-b]pyridin-1-yl)-3-oxoprop-1-en-1-yl)-7-hydroxy-4-isobutyl-5-oxo-4,5-dihydropyrazolo[1,5-a]pyrimidine-6-carboxamide]",2.01
6,"CC(C)Cn1c(=O)c(C(=O)NC2CC2)c(O)n2ncc(/C=C/C(=O)N3[C@H](C)CCC[C@@H]3C)c12 [compound 597, N-Cyclopropyl-3-((E)-3-(cis-2,6-dimethylpiperidin-1-yl)-3-oxoprop-1-en-1-yl)-7-hydroxy-4-isobutyl-5-oxo-4,5-dihydropyrazolo[1,5-a]pyrimidine-6-carboxamide]",1.62
7,"CC(C)Cn1c(=O)c(C(=O)NC2CC2)c(O)n2ncc(/C=C/C(=O)N3CC[C@H](C(C)(C)O)C3)c12 [compound 598, (S,E)-N-Cyclopropyl-7-hydroxy-3-(3-(3-(2-hydroxypropan-2-yl)pyrrolidin-1-yl)-3-oxoprop-1-en-1-yl)-4-isobutyl-5-oxo-4,5-dihydropyrazolo[1,5-a]pyrimidine-6-carboxamide]",1.2
8,"CC(C)Cn1c(=O)c(C(=O)NC2CC2)c(O)n2ncc(/C=C/C(=O)N3CCC[C@@H]3C(C)C)c12 [compound 599, (R,E)-N-Cyclopropyl-7-hydroxy-4-isobutyl-3-(3-(2-isopropylpyrrolidin-1-yl)-3-oxoprop-1-en-1-yl)-5-oxo-4,5-dihydropyrazolo[1,5-a]pyrimidine-6-carboxamide]",1.27
9,"CC(C)Cn1c(=O)c(C(=O)NC2CC2)c(O)n2ncc(/C=C/C(=O)N3CCC[C@H]3C(C)C)c12 [compound 600, (S,E)-N-Cyclopropyl-7-hydroxy-4-isobutyl-3-(3-(2-isopropylpyrrolidin-1-yl)-3-oxoprop-1-en-1-yl)-5-oxo-4,5-dihydropyrazolo[1,5-a]pyrimidine-6-carboxamide]",1.47
10,"CC(C)Cn1c(=O)c(C(=O)NC2CC2)c(O)n2ncc(/C=C/C(=O)N3CCC[C@@H]3C(F)F)c12 [compound 601, (R,E)-N-Cyclopropyl-3-(3-(2-(difluoromethyl)pyrrolidin-1-yl)-3-oxoprop-1-en-1-yl)-7-hydroxy-4-isobutyl-5-oxo-4,5-dihydropyrazolo[1,5-a]pyrimidine-6-carboxamide]",1.08
11,"CC(C)Cn1c(=O)c(C(=O)NC2CC2)c(O)n2ncc(/C=C/C(=O)N3CCOC[C@H]3c3ccccc3)c12 [compound 602, (R,E)-N-Cyclopropyl-7-hydroxy-4-isobutyl-5-oxo-3-(3-oxo-3-(3-phenylmorpholino)prop-1-en-1-yl)-4,5-dihydropyrazolo[1,5-a]pyrimidine-6-carboxamide]",1.14
12,"CC(C)Cn1c(=O)c(C(=O)NC2CC2)c(O)n2ncc(/C=C/C(=O)N3CCC[C@H]3c3cccnc3)c12 [compound 603, (S,E)-N-Cyclopropyl-7-hydroxy-4-isobutyl-5-oxo-3-(3-oxo-3-(2-(pyridin-3-yl)pyrrolidin-1-yl)prop-1-en-1-yl)-4,5-dihydropyrazolo[1,5-a]pyrimidine-6-carboxamide]",1.1
13,"CC(C)Cn1c(=O)c(C(=O)NC2CC2)c(O)n2ncc(/C=C/C(=O)N(C)Cc3ccn(C)n3)c12 [compound 604, (E)-N-Cyclopropyl-7-hydroxy-4-isobutyl-3-(3-(methyl((1-methyl-1H-pyrazol-3-yl)methyl)amino)-3-oxoprop-1-en-1-yl)-5-oxo-4,5-dihydropyrazolo[1,5-a]pyrimidine-6-carboxamide]",0.92
14,"CC[C@H]1CCCN1C(=O)/C=C/c1cnn2c(O)c(C(=O)NC3CC3)c(=O)n(CC(C)C)c12 [compound 605, (S,E)-N-Cyclopropyl-3-(3-(2-ethylpyrrolidin-1-yl)-3-oxoprop-1-en-1-yl)-7-hydroxy-4-isobutyl-5-oxo-4,5-dihydropyrazolo[1,5-a]pyrimidine-6-carboxamide]",1.2
15,"CC(C)Cn1c(=O)c(C(=O)NC2CC2)c(O)n2ncc(/C=C/C(=O)N3CCOC[C@@H]3c3ccccc3)c12 [compound 606, (S,E)-N-Cyclopropyl-7-hydroxy-4-isobutyl-5-oxo-3-(3-oxo-3-(3-phenylmorpholino)prop-1-en-1-yl)-4,5-dihydropyrazolo[1,5-a]pyrimidine-6-carboxamide]",1.32
16,"CC(C)Cn1c(=O)c(C(=O)NC2CC2)c(O)n2ncc(/C=C/C(=O)N3CCC[C@@H]3c3ccccc3)c12 [compound 607, (R,E)-N-Cyclopropyl-7-hydroxy-4-isobutyl-5-oxo-3-(3-oxo-3-(2-phenylpyrrolidin-1-yl)prop-1-en-1-yl)-4,5-dihydropyrazolo[1,5-a]pyrimidine-6-carboxamide]",1.67
17,"Cc1nn2c(O)c(C(=O)NC3CC3)c(=O)n(CC(C)C)c2c1/C=C/C(=O)N1CC2C(C1)C2(F)F (stereo not shown) [compound 608, (E)-N-Cyclopropyl-3-(3-(6,6-difluoro-3-azabicyclo[3.1.0]hexan-3-yl)-3-oxoprop-1-en-1-yl)-7-hydroxy-4-isobutyl-2-methyl-5-oxo-4,5-dihydropyrazolo[1,5-a]pyrimidine-6-carboxamide]",1.07
18,"CC[C@@H]1CCCN1C(=O)/C=C/c1c(C)nn2c(O)c(C(=O)NC3CC3)c(=O)n(CC(C)C)c12 [compound 610, (R,E)-N-Cyclopropyl-3-(3-(2-ethylpyrrolidin-1-yl)-3-oxoprop-1-en-1-yl)-7-hydroxy-4-isobutyl-2-methyl-5-oxo-4,5-dihydropyrazolo[1,5-a]pyrimidine-6-carboxamide]",1.64
19,"Cc1nn2c(O)c(C(=O)NC3CC3)c(=O)n(CC(C)C)c2c1/C=C/C(=O)N1CCC[C@@H]1C(C)(C)O [compound 611, (R,E)-N-Cyclopropyl-7-hydroxy-3-(3-(2-(2-hydroxypropan-2-yl)pyrrolidin-1-yl)-3-oxoprop-1-en-1-yl)-4-isobutyl-2-methyl-5-oxo-4,5-dihydropyrazolo[1,5-a]pyrimidine-6-carboxamide]",1.22
